Measurements taken from US4166125A, “2-Oxo-phenylbutanoic acid derivatives” (Grelan Pharmaceutical Co., Ltd., priority 1977, dated 1979).

Assays:
[1] = system: pain threshold of hind paws (Brewer's yeast); assay: Analgesic activity, Randall and Selitto method (oral administration); format: in vivo, rat (Sprague-Dawley strain)
Method: Randall and Selitto method
According to a method conforming to Randall, L. O. and Selitto, J. J. [Archives Internationales de Pharmacodynamie et de Therapie, 111, 409, (1957)], 0.1 ml of 10% Brewer's yeast suspension in physiological saline was injected subcutaneously into the plantar surface of the right hind paws of 5 male rats in each group (Sprague-Dawley strain) weighing 90 to 110 g. 2 Hours after administration of the yeast suspension, each test compound suspended in 0.3% CMC-Na solution was orally administered to the rats in an amount of 1.0 ml per 100 g of body weight of the rat. 30 Minutes, 60 minutes and 120 minutes after administration of the test compounds, threshold values of left and right hind paws of the rats were measured by an electric pressure device made by Daiwa Kinzoku Co., Ltd. (Japan). The change of threshold was obtained by comparing the pain threshold obtained in a group after the yeast injection with that obtained before the yeast injection, in the same group as above. Increasing percent of pain threshold of the test compound was calculated on the basis of the mean changes of threshold of the test group and of that of the control group. Rats of the control group were administered orally only 0.3% CMC-Na solution.
According to the Litchfield-Wilcoxon method [The Journal of Pharmacology and Experimental Therapeutics, 96, 96, (1949)], ED50 value was calculated as follows on the basis of the increasing percent of pain threshold;

adjuvant arthritis = assay: Inhibition to adjuvant arthritis (oral administration); format: in vivo, rat (Sprague-Dawley strain); settings: for Increase in body weight / Weight of the organs: Adrenal glands / Weight of the organs: Spleen / Weight of the organs: Thymus: once a day for 7 days
Method: Inhibition to adjuvant arthritis.
According to a method conforming to Fujihira et al [Oyo Yakuri, 5, 169, (1971)], liquid paraffin suspension of Mycobacterium butiricum (hereinafter abbreviated as adjuvant) was injected subcutaneously to right hind paws of male rats (Spraque-Dawley strain) weighing 150 to 170 g in an amount of 0.3 mg/0.05 ml/rat. 14 Days after adjuvant injection, the rats, paws of which swelled to a similar degree, were selected and they were separated into groups. From the 15th day after adjuvant injection, each test compound suspended in 0.3% CMC-Na solution was orally administered once a day for 7 days to the 7 rats in each group in the dose shown in the following table 2.
The 16th, 19th and 22nd days after adjuvant injection the volume of left hand paws (i.e. paws not treated with the adjuvant) of the rats and their body weight were measured. Inhibition percent to the arthritis (edema) is calculated according to the same equation as that used in Experiment 1, and the value of ED40 is calculated on the basis of the inhibition percent. Then the rats were sacrificed with ether and the weight of their thymus, adrenal glands and spleen was determined.

**Q.** For CC(C(=O)C(N)=O)c1ccc(N2Cc3ccccc3C2=O)cc1 (stereo not drawn) [2-oxo-3-[4-(1-oxo-2-isoindolinyl)phenyl]butanamide], which “Increasing percent of pain threshold” value ([1]; 25 mg/Kg oral, 30 minutes after administration) is on record?
**A.** Its value is 15.6 ± 10.3%.

**Q.** What about the “Increasing percent of pain threshold” value ([1]; 25 mg/Kg oral, 60 minutes after administration) of the same compound?
**A.** The value was 14.1 ± 13.7%.

**Q.** And the “Increasing percent of pain threshold” value ([1]; 25 mg/Kg oral, 120 minutes after administration)?
**A.** Its value is 22.1 ± 18.5%.

**Q.** What about the “Increasing percent of pain threshold” value ([1]; 50 mg/Kg oral, 30 minutes after administration) of the same compound?
**A.** Its value is 46.9 ± 4.6%.

**Q.** What about the “Increasing percent of pain threshold” value ([1]; 50 mg/Kg oral, 60 minutes after administration) of the same compound?
**A.** The value was 32.7 ± 5.9%.

**Q.** What about the “Increasing percent of pain threshold” value ([1]; 50 mg/Kg oral, 120 minutes after administration) of the same compound?
**A.** The value was 48.6 ± 9.0%.

**Q.** And the “Increasing percent of pain threshold” value ([1]; 100 mg/Kg oral, 30 minutes after administration)?
**A.** The value was 46.1 ± 6.6%.

**Q.** What about the “Increasing percent of pain threshold” value ([1]; 100 mg/Kg oral, 60 minutes after administration) of the same compound?
**A.** Its value is 32.4 ± 7.0%.

**Q.** And the “Increasing percent of pain threshold” value ([1]; 100 mg/Kg oral, 120 minutes after administration)?
**A.** Its value is 39.0 ± 7.3%.

**Q.** And the “Increasing percent of pain threshold” value ([1]; 200 mg/Kg oral, 30 minutes after administration)?
**A.** Its value is 57.3 ± 14.8%.

**Q.** What about the “Increasing percent of pain threshold” value ([1]; 200 mg/Kg oral, 60 minutes after administration) of the same compound?
**A.** The value was 39.7 ± 8.9%.

**Q.** And the “Increasing percent of pain threshold” value ([1]; 200 mg/Kg oral, 120 minutes after administration)?
**A.** Its value is 39.6 ± 6.5%.

**Q.** What about the ED50 ([1]; Rattus norvegicus, oral, Litchfield-Wilcoxon method, from increasing percent of pain threshold) of the same compound?
**A.** The ED50 was 100 mg/kg.

**Q.** What about the “Inhibition to adjuvant arthritis” value (adjuvant arthritis; 25 mg/Kg oral, 1st day) of the same compound?
**A.** The value was 24.0%.

**Q.** And the “Inhibition to adjuvant arthritis” value (adjuvant arthritis; 25 mg/Kg oral, 4th day)?
**A.** The value was 25.1%.

**Q.** And the “Inhibition to adjuvant arthritis” value (adjuvant arthritis; 25 mg/Kg oral, 7th day)?
**A.** Its value is 35.2%.

**Q.** And the “Increase in body weight” value (adjuvant arthritis; 25 mg/Kg oral)?
**A.** The value was 28.4 g.

**Q.** And the “Weight of the organs: Adrenal glands” value (adjuvant arthritis; 25 mg/Kg oral)?
**A.** Its value is 12.5 ± 1.3 mg/100g of body weight.

**Q.** What about the “Weight of the organs: Spleen” value (adjuvant arthritis; 25 mg/Kg oral) of the same compound?
**A.** The value was 441.1 ± 39.6 mg/100g of body weight.

**Q.** And the “Weight of the organs: Thymus” value (adjuvant arthritis; 25 mg/Kg oral)?
**A.** Its value is 146.0 ± 7.3 mg/100g of body weight.

**Q.** And the “Inhibition to adjuvant arthritis” value (adjuvant arthritis; 100 mg/Kg oral, 1st day)?
**A.** The value was 32.7%.

**Q.** What about the “Inhibition to adjuvant arthritis” value (adjuvant arthritis; 100 mg/Kg oral, 4th day) of the same compound?
**A.** Its value is 34.5%.

**Q.** What about the “Inhibition to adjuvant arthritis” value (adjuvant arthritis; 100 mg/Kg oral, 7th day) of the same compound?
**A.** The value was 45.3%.

**Q.** And the “Increase in body weight” value (adjuvant arthritis; 100 mg/Kg oral)?
**A.** The value was 40.7 g.

**Q.** And the “Weight of the organs: Adrenal glands” value (adjuvant arthritis; 100 mg/Kg oral)?
**A.** The value was 11.5 ± 0.7 mg/100g of body weight.

**Q.** What about the “Weight of the organs: Spleen” value (adjuvant arthritis; 100 mg/Kg oral) of the same compound?
**A.** The value was 414.2 ± 28.8 mg/100g of body weight.

**Q.** What about the “Weight of the organs: Thymus” value (adjuvant arthritis; 100 mg/Kg oral) of the same compound?
**A.** The value was 147.2 ± 15.6 mg/100g of body weight.
